Columns and labels:
[1] = test system: MDM2 in DBTRG-05MG glioma cells; assay: MDM2 expression by immunoblot; format: cell-based
Experimental: (§1) Antibodies against CDK4 (3F121), MDM2 (N-20 and SMP14), total RB (IF8), Cyclin A (H432), p16 (C20), p53 (DO-1 and Bp53-12), tubulin (C20) and FLAG (M2) were obtained from Santa Cruz Biotechnology, phospho-Rb 780 (#9307) from Cell Signalling, and ARF (3642) from Abeam, HAUSP (A300-033A) from Bethyl Laboratories. Treated cells were lysed with buffer composed of 50 mM Tris-HCl, pH7.4, 250 mM NaCl, 5 mM EDTA, 0.5% NP40, 2 mM PMSF, and supplemented with protease inhibitors. Eighty micrograms of protein were resolved by SDS-PAGE and transferred to PVDF membranes. Membranes were incubated overnight with antibodies (1:1000). […] Cycles were repeated every four weeks and patients are still on trial. Pre-treatment biopsies were collected within two weeks of the first dose and post-treatment biopsies collected after at last three weeks of treatment. Extracts were prepared in 50 mM Tris-HCl, pH7.4, 150 mM NaCl, 1 mM EDTA, 1% NP40, 0.25% sodium deoxycholate and supplemented with mini-protease inhibitor cocktail (Roche). Tumor response was assessed by reference radiologist by CT scan every six weeks for 36 weeks, and every 12 weeks thereafter. The clinical trial was approved by the Institutional Review Board of Memorial Sloan-Kettering Cancer Center and all patients provided written informed consent (NCT01209598).

[2] = test system: MDM2 in T98G glioma cells; assay: MDM2 expression by immunoblot; format: cell-based
Experimental: as §1

[3] = test system: MDM2 in DKMG glioma cells; assay: MDM2 expression by immunoblot; format: cell-based
Experimental: as §1

[4] = test system: MDM2 in MCF7 breast cancer cells; assay: MDM2 expression by immunoblot; format: cell-based
Experimental: as §1

[5] = test system: MDM2 in SNB19 glioma cells; assay: MDM2 expression by immunoblot; format: cell-based
Experimental: as §1

seven WD/DDLS cell lines = assay: cell size, phalloidin staining and flow cytometry; format: cell-based, human; settings: continued treatment, all seven cell lines
Experimental: FIGS. 10A-C. […] Cells were plated at a concentration of 25,000 per well in a 4-well chamber slides (Lab-Tek) and treated for seven days with drug or shRNA as described above and stained for senescence-associated β-galactosidase (Cell Signaling kit #9860). Cell number was quantitated by DAPI staining and β-galactosidase staining quantitated as a proportion of total cells. Senescence associated heterochromatic foci were quantitated after cells were fixed with 4% paraformaldehyde, permeabilized with 0.1% Triton, blocked with 2% FBS, and stained with antibodies against HP1γ (1:5000 dilution, 2MOD-1G6 Millipore). Senescent cells were identified by immunofluorescence after treatment of slides with anti-mouse secondary antibodies and quantitation of focal SAHF as a percent of total cells (Leica Upright Confocal SP5 confocal microscope). Actin was marked using phalloidin staining (1:500, Invitrogen) and cells were counterstained with DAPI. Cell area was measured by with Metamorph software to calculate relative area per cell.

T98G glioma cells = assay: PD-induced growth arrest (BrdU incorporation); format: cell-based; settings: BrdU incorporation 7 days after treatment
Experimental: (§2) Cell lines were maintained in DMEM High glucose (HG) supplemented with 10% heat-inactivated fetal bovine serum. Glioma cell lines, DKMG, SNB19, DBTRG-05MG, and […], were maintained in DMEM HG supplemented with 10% fetal bovine serum and 2 mM glutamine. The MCF7 breast cancer cell line was maintained in RPMI-1640 media supplemented with 10% fetal bovine serum and 2 mM glutamine.
(§3) shRNA were delivered in the pLKO.1 vector (Sigma) and infected cells selected using puromycin (1 μg/ml); infection with a virus carrying a scramble control ([…]) was used as a control in all experiments utilizing shRNA. Cell lines were treated with […] or shRNA directed against CDK4 ([…] (SEQ ID NO:4)), MDM2 (M376, […] (SEQ ID NO:5); M380, […] (SEQ ID NO:6)), HAUSP (4057, […] (SEQ ID NO:7); 845, […] (SEQ ID NO:8)) or CDK6 ([…] (SEQ ID NO:9)) for 48 hours to 7 days and stained with BrdU (20 μM for two hours) or annexin V as previously described (22, 48). […] was determined by staining with propidium iodine and FACS analyses (49).
(§4) Cells were stained with BrdU (20 μM for two hours) or annexin V as previously described (22, 48). […] was determined by staining with propidium iodine and FACS analyses (49).

DKMG glioma cells = assay: PD-induced growth arrest (BrdU incorporation); format: cell-based; settings: BrdU incorporation 7 days after treatment
Experimental: as §2, §3, §4

SNB19 glioma cells = assay: PD-induced growth arrest (BrdU incorporation); format: cell-based; settings: BrdU incorporation 7 days after treatment
Experimental: as §2, §3, §4

MCF7 breast cancer cells = assay: PD-induced growth arrest (BrdU incorporation); format: cell-based; settings: BrdU incorporation 7 days after treatment
Experimental: as §2, §3, §4

DBTRG-05MG glioma cells = assay: PD-induced growth arrest (BrdU incorporation); format: cell-based; settings: BrdU incorporation 7 days after treatment
Experimental: as §2, §3, §4

[6] = test system: HAUSP and MDM2 interaction in LS8817, LS0082, LS7785-1 and LS7785-10 cells; assay: co-immunoprecipitation of HAUSP and MDM2; format: cell-based, human; settings: two days PD0332991, then 5 μM MG132 for 2 hours; detected in untreated cells
Experimental: FIG. 25A-D. Turnover of MDM2 is regulated post-translationally. […] Extracts were prepared and MDM2 was immunoprecipitated and the presence of HAUSP and MDM2 in the precipitates were determined by immunoblot. IgG was used as a non-specific antibody control for the immunoprecipitation. […] Tubulin is a loading control. HAUSP levels were reduced with shRNA in the indicated cells lines and the effect on protein expression (C) and the accumulation of senescence-associated (3-galactosidase positive cells measured (D). The mean and standard deviation was compiled from at least two independent experiments with each cell line and a representative immunoblot is shown.

WD/DDLS = settings: cited from earlier work
[7] = ratio of MDM2 detected by Image J scanning in treated versus untreated cultures

CC(=O)c1c(C)c2cnc(Nc3ccc(N4CCNCC4)cn3)nc2n(C2CCCC2)c1=O [PD0332991]
MDM2 expression levels reduced compared to the non-treated cells [1]: greater than 34% | ΔMDM2 with PD [1, 7]: 0.49 | MDM2 levels ([2]; cells that did not undergo senescence): unaffected | ΔMDM2 with PD [2, 7]: Not detected | MDM2 expression levels reduced compared to the non-treated cells [3]: greater than 34% | ΔMDM2 with PD [3, 7]: 0.66 | MDM2 expression levels reduced compared to the non-treated cells [4]: greater than 34% | ΔMDM2 with PD [4, 7]: 0.08 | MDM2 expression levels reduced compared to the non-treated cells [5]: greater than 34% | ΔMDM2 with PD [5, 7]: 0.08 | cell size / cell volume (seven WD/DDLS cell lines): enlarged | PD-induced growth arrest (T98G glioma cells): + (BrdU incorporation is reduced at least 8X 7 days after treatment with the drug) | PD-induced growth arrest (DKMG glioma cells): + (BrdU incorporation is reduced at least 8X 7 days after treatment with the drug) | PD-induced growth arrest (SNB19 glioma cells): + (BrdU incorporation is reduced at least 8X 7 days after treatment with the drug) | PD-induced growth arrest (MCF7 breast cancer cells): + (BrdU incorporation is reduced at least 8X 7 days after treatment with the drug) | PD-induced growth arrest (DBTRG-05MG glioma cells): + (BrdU incorporation is reduced at least 8X 7 days after treatment with the drug) | interaction of HAUSP and MDM2 detected by co-immunoprecipitation [6]: not in any of the cells treated | patients with prolonged stable disease (WD/DDLS; 30 WD/DDLS patients): 66% | time at which one patient achieved a RECIST partial response (WD/DDLS; one patient): 74 weeks | myelosuppression (WD/DDLS; patients): common | tolerability (WD/DDLS; patients): generally well-tolerated | decrease in tumor size (WD/DDLS; three other patients, favorable response that did not meet RECIST): at least 10%

— US9889135B2, “Companion diagnostic for CDK4 inhibitors” (Memorial Sloan-Kettering Cancer Center, priority 2013, dated 2018)
